Test results as given in ChEMBL document CHEMBL1641592, “Benzopyrazine derivatives: A novel class of growth factor receptor bound protein 7 antagonists” (Bioorg Med Chem, 2011).

Assays:
[1] = target: Growth factor receptor-bound protein 7 (Homo sapiens) (UniProt Q14451)
Description: Binding affinity to human GRB7 SH2-apo domain expressed in Escherichia coli BL21 (DE3) assessed as change in melting temperature at 100 uM by thermofluor based melting point shift assay

[2] = target: Growth factor receptor-bound protein 7 (Homo sapiens) (UniProt Q14451); remark: listed apart in the source
Description: Binding affinity to human GRB7 SH2-apo domain expressed in Escherichia coli BL21 (DE3) assessed as change in melting temperature at 200 uM by thermofluor based melting point shift assay

MDA-MB-468 = test: Cytotoxicity against human MDA-MB-468 cells after 4 days by SRB assay; settings: MDA-MB-468, 96 h

Growth factor receptor-bound protein 7 (Homo sapiens), sequence (Q14451 whole entry): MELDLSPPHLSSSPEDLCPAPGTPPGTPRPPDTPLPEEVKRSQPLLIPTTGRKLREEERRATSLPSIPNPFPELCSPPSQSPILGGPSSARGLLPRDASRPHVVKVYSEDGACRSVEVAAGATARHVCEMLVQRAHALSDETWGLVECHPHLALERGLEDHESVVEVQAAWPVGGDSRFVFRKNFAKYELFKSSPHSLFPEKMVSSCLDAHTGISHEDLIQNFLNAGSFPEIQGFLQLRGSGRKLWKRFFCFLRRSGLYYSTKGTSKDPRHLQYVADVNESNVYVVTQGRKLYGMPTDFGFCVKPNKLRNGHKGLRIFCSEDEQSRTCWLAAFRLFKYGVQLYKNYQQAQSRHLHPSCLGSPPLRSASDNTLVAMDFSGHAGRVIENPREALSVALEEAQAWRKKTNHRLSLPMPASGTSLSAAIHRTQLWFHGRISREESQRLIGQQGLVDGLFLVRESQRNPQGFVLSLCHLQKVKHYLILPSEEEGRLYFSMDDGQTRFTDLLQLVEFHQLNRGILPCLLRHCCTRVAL

Compound	ΔTm [1] [°C]	ΔTm [2] [°C]	IC50 (MDA-MB-468) [µM]
COC(=O)C(=O)C(C(=O)C(=O)Nc1ccccc1C(C)=O)c1nc2ccc(C(=O)c3ccccc3)cc2nc1O (stereo not drawn)	0.05	0.55	–
COC(=O)C(=O)C(C(=O)C(=O)Nc1ccc(C(N)=O)cc1)c1nc2ccc([N+](=O)[O-])cc2nc1O (stereo not drawn)	0.45	0.85	–
COC(=O)C(=O)C(C(=O)C(=O)Nc1cc([N+](=O)[O-])ccc1C#N)c1nc2ccccc2nc1O (stereo not drawn)	1.2	0.95	–
COC(=O)C(=O)C(C(=O)C(=O)Nc1ccccc1C(N)=O)c1nc2ccc(C(=O)c3ccccc3)cc2nc1O (stereo not drawn)	–	–	86

Second part, led by results:

ΔTm [1] [°C]	ΔTm [2] [°C]	Compound	IC50 (MDA-MB-468) [µM]
0.9	0.6	COC(=O)C(=O)C(C(=O)C(=O)Nc1cc(C)ccc1C)c1nc2ccccc2nc1O (stereo not drawn)	–
0.45	0.55	COC(=O)C(=O)C(C(=O)C(=O)Nc1cccc(C(C)=O)c1)c1nc2ccc([N+](=O)[O-])cc2nc1O (stereo not drawn)	–
1.35	1.85	C[C@@H](O)[C@@H]1NC(=O)[C@H](CC(N)=O)NC(=O)[C@H](CC(=O)O)NC(=O)[C@H](Cc2ccc(O)cc2)NC(=O)CNC(=O)[C@@H](CCC(=O)O)NC(=O)[C@H](Cc2ccccc2)NC(=O)[C@H](Cc2c[nH]c3ccccc23)NC(=O)CSC[C@@H](C(=O)O)NC(=O)[C@@H]2CCCN2C(=O)[C@H](Cc2ccccc2)NC1=O	–
